Source: patent publication US6994862B2, “Formulation solubilizing water-insoluble agents and preparation method thereof” (Korea Institute of Science and Technology, priority 2000, dated 2006)

Assay: Release experiment of a pharmaceutical compound (dialysis bag, PBS pH 7.4, 37° C.)
Type: physicochemical
Details: within 5 hr; dialysis bag in PBS pH 7.4, 37° C.
Protocol: Dispersion was prepared by mixing 250 μL of the above liquid formulation with 1.75 mL of distilled water and shaken manually. The mixture was then added into a dialysis bag (MWCO=3,500, Spectra/Por^R, Spectrum Medical Industries, Inc., USA), both ends were tied with a closure, and placed into a 50 ml conical tube containing 10 ml of phosphate buffered saline (PBS, pH=7.4). The conical tube was placed in a 37° C. shaking water bath for the release experiment. The PBS solution located outside the dialysis tube was collected at regular intervals to analyze concentration of the pharmaceutical compound released from the dialysis bag by using Fluorescence spectroscopy (λex=370 nm, λem=480 nm). An aqueous solution where 0.7 mg of rifampicin was dissolved in 2 mL of distilled water was used as a control.
Release experiment was performed using the liquid formulation manufactured the same as in the experimental Example 1 with the exception that 0.7 mg of bromocresol green was used in place of rifampicin. The released drug was collected from the PBS solution and subsequently analyzed for its absorbance at 617 nm. An aqueous solution, where 0.7 mg of bromocresol green was dissolved in 2 mL of distilled water, was used as a control.

With `Cc1c(C2(c3cc(Br)c(O)c(Br)c3C)OS(=O)(=O)c3ccccc32)cc(Br)c(O)c1Br` [bromocresol green] the drug released was “more than 80%”.
